Test results reported in patent publication US11078262B2, “High viscosity macromolecular compositions for treating ocular conditions” (ALLERGAN, INC., priority 2007, dated 2021).

Test system: macula edema with central retinal vein occlusion and/or branch retinal vein occlusion
Test: Treatment of macular edema with intravitreal MAAC composition (ETDRS visual acuity)
Type: in vivo, human
Settings: patient; 1 mg intravitreal every 4 months; twelve months after the first injection
Experimental: An obese patient with symptoms of diabetes presents with vision loss due to macula edema with central retinal vein occlusion and/or branch retinal vein occlusion. They receive intravitreal injection of 1 mg of a high viscosity MAAC (polymeric hyaluronate based) solution containing COMPOUND D, such as the Example 13 formulation. Equivalent injections are made every 4 months.

siRNA Z (chain 1 CUGAGUUUAAAAGGCACCCTT; chain 2 TTGACUCAAAUUUUCCGUGGG; chemically modified, pattern not given here; one strand is listed 3' to 5') [COMPOUND D]
improved best corrected visual acuity from baseline (ETDRS chart): fifteen
